Numbers after ± are expanded uncertainties.

The conditions of the series: Liquid.
Setting [1] is: 313.15 K, gas saturation method.
Where [2] appears, read: 333.15 K, gas saturation method.
Setting [3] is: 353.15 K, gas saturation method.
[4] abbreviates: 373.15 K, gas saturation method.
[5] abbreviates: 393.15 K, gas saturation method.
Where [6] appears, read: 423.15 K, gas saturation method.

Regarding `CCCCOC(=O)c1ccccc1C(=O)OCCCC` [dibutyl phthalate], the “vapor or sublimation pressure” value is listed as 2.4e-05 ± 2e-06 kPa under setting [1]; 0.000195 ± 1.5e-05 kPa under setting [2]; 0.001289 ± 0.0001 kPa under setting [3]; 0.006211 ± 0.00057 kPa under setting [4]; 0.0127 ± 0.0007 kPa (381.51 K, Closed cell (Static) method); 0.0248 ± 0.0009 kPa (391.7 K, Closed cell (Static) method). The “vapor or sublimation pressure” value under setting [5] was 0.02452 ± 0.0019 kPa; the “vapor or sublimation pressure” value (401.69 K, Closed cell (Static) method) is 0.0461 ± 0.0013 kPa; the “vapor or sublimation pressure” value (411.58 K, Closed cell (Static) method) came to 0.0824 ± 0.0021 kPa; the “vapor or sublimation pressure” value (421.43 K, Closed cell (Static) method) is listed as 0.1441 ± 0.0028 kPa; the “vapor or sublimation pressure” value under setting [6] was 0.151 ± 0.012 kPa.

As to `CC(C)COC(=O)c1ccccc1C(=O)OCC(C)C` [diisobutyl 1,2-benzenedioate], the “vapor or sublimation pressure” value under setting [1] was found to be 4.1e-05 ± 3e-06 kPa; the “vapor or sublimation pressure” value under setting [2] is given as 0.000436 ± 4.3e-05 kPa; the “vapor or sublimation pressure” value under setting [3] is listed as 0.002796 ± 0.00025 kPa; the “vapor or sublimation pressure” value under setting [4] came out at 0.01285 ± 0.001 kPa; the “vapor or sublimation pressure” value under setting [5] is 0.0445 ± 0.0035 kPa; the “vapor or sublimation pressure” value under setting [6] is recorded as 0.2156 ± 0.017 kPa.
